Source: PMC10683027, “Discovery of tert-Butyl Ester Based 6-Diazo-5-oxo-L-norleucine Prodrugs for Enhanced Metabolic Stability and Tumor Delivery” (Journal of Medicinal Chemistry, 2023)
pEC50: −log10 of the molar value.

Experiments:
[1] = Full pharmacokinetic evaluation of P11 in EL4 tumor-bearing mice (intact prodrug and released DON); assay type: in vivo, C57BL/6/CES1–/– mice; settings: P11 2.9 mg/kg SC, analyte intact P11
Procedure: (§1) C57BL/6/CES1^–/– mice were obtained as a gift from the United States Army Medical Research Institute of Chemical Defense, Maryland, USA; breeding was performed in the Johns Hopkins animal facility and was conducted according to protocols reviewed and approved by the Johns Hopkins Institutional Animal Care and Use Committee in compliance with the Association for Assessment and Accreditation of Laboratory Animal Care International (AAALAC) and the Public Health Service Policy on the Humane Care and Use of Laboratory Animals (PHS Policy). Male and female C57BL/6 mice (weighing between 25 and 30 g) 6–8 weeks of age were used for the study. The animals were maintained on a 12 h light–dark cycle with ad libitum access to food (certified laboratory food: Teklad 18% Protein Extruded Rodent Diet) and water. EL4 mouse lymphoma cells were obtained as a gift from the laboratory of Dr. Jonathan Powell (Johns Hopkins University, Baltimore, MD) and maintained in RPMI 1640 medium 1X (Corning, cat. no. 10-040-CV) with 10% (v/v) fetal bovine serum (Corning, cat. no. 35-011-CV), 1% (v/v) antimycotic/antibiotic (Corning, cat. no. 30-004-CI), 2 mM L-glutamine (Corning, cat. no. 25-005-CI), and 10 mM HEPES (Corning, cat. no. 25-060-CI) in a 5% (v/v) CO2 and 95% (v/v) air incubator prior to subcutaneous (SC) injection (1 × 10^6 cells in 0.2 mL of phosphate-buffered saline) on the flank of each mouse.
Pharmacokinetic study was performed after tumors grew to a mean volume of around 400 mm^3. […]
Plasma concentration levels of P11 were measured by precipitating 20 μL of plasma sample with 100 μL of methanol containing internal standard (losartan, 0.5 μM), followed by vortex mixing for 30 s and then centrifugation at 16000g for 5 min at 4 °C. […]
Chromatographic analysis was performed on an Agilent ultra-high-performance LC system coupled with an Agilent 6520 QTOF mass spectrometer (Agilent, Santa Clara, CA). […] P11 concentrations were determined by the AUC of high-resolution extracted chromatograms of P11 divided by internal standard (460.2554 m/z/423.1695 m/z). […]

[2] = Single time point pharmacokinetic screening, released DON in plasma and tumor of EL4 tumor-bearing mice; assay type: in vivo, C57BL/6/CES1–/– mice; settings: 1 mg/kg DON equivalent SC; 30 min
Procedure: as §1, with “mouse. […]” for “mouse.”

P493B lymphoma cells = assay: Cell viability assay; assay type: cell-based; settings: Homo sapiens, 72 h, 72 h incubation
Procedure: Cell proliferation assays were performed as we have previously described.[19] Briefly, P493B lymphoma cells were plated in 96-well plates at a density of 20 000 cells/well in a final volume of 100 μL of growth media. P11, or DRP-104, was added to cells in half-log serial dilutions with a final concentration of 0.2% DMSO. Cells were allowed to proliferate for 72 h, and thereafter, 20 μL of CellTiter 96 AQueous (Promega no. 3580) was added per well and incubated for 2 h. Absorbance was measured at 490 nm. Relative cell viability was calculated from the difference between untreated cell wells (100%) and media well without cells (0%).

With `CN(C)CC(=O)N[C@@H](Cc1ccccc1)C(=O)N[C@@H](CCC(=O)C=[N+]=[N-])C(=O)OC(C)(C)C` [Prodrug P11, tert-Butyl (S)-6-Diazo-2-((S)-2-(2-(dimethylamino)acetamido)-3-phenylpropanamido)-5-oxohexanoate] as the compound, how does the “intestinal tissue levels of intact prodrug (below the limit of quantification)” value ([1]; intestinal tissue) read?
Its value is < 0.01 nmol/mL.

What about the “AUC of intact prodrug, tumor” value ([1]; tumor) of the same compound?
The value was 0.092 nmol·h/g.

What about the AUC at 6 h ([1]; both sexes, C57BL/6/CES1–/–, mouse, plasma) of the same compound?
Its AUC at 6 h is 0.15 µM·h.

What about the “preferential DON tumor versus plasma delivery” value [2] of the same compound?
The value was “maintained the preferential DON tumor versus plasma delivery”.

What about the pEC50 (P493B lymphoma cells) of the same compound?
Its pEC50 is ~6.52.
